Values joined by “and” are separate entries in the source; they are usually repeats but may differ in a detail not shown here. Equal entries are not always repeated. Where two headings read alike, the source gives them in different places.
Columns and labels:
CB1R QuadrupleTM1,7 = assay: [35S]GTPγS assay, CB1R quadruple mutant; assay type: biochemical, human
hCB2R [1] = target: T1, hCB2R (Homo sapiens, UniProt P34972); assay: [3H]RO6957022 competition association assay; assay type: binding; details: for percentage specific [3H]RO6957022 binding (competition association): individual replicates
T1 construct: host or cells: CHO-K1 (CHOK1_hCB2bgal, PathHunter), membranes
T1 sequence (P34972 whole entry): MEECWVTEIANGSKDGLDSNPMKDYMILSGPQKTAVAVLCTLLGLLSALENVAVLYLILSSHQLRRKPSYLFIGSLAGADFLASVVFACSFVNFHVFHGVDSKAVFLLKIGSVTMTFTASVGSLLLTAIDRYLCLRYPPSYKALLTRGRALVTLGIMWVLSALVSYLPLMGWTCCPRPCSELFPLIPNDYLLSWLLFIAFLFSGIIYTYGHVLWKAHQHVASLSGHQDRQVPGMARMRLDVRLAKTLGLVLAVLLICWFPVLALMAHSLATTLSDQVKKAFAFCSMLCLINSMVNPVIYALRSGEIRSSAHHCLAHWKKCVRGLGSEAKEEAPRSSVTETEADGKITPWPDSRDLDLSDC

CB2R-Quadruple^TM1,7 = CB2R-Quadruple^TM1,7 (Homo sapiens, UniProt P34972, C40S/K279T/K33Q/V36I); assay: [35S]GTPγS assay, CB2R quadruple mutant; assay type: biochemical; details: for [35S]GTPγS binding, percentage of WT: QuadrupleTM1,7, individual replicates
CB2R-Quadruple^TM1,7, sequence (P34972 whole entry K33Q/V36I/C40S/K279T): as the sequence (P34972 whole entry) above, with K33Q, V36I, C40S, K279T counted along it

CB2R WT = CB2R WT (Homo sapiens, UniProt P34972); assay: [35S]GTPγS G protein activation assay, CB2R WT; assay type: biochemical; details: for Emax: CB2R WT, read-out: Emax (%); for [35S]GTPγS binding, percentage of WT / [35S]GTPγS binding, percentage of CP55,940: individual replicates
CB2R WT, sequence (P34972 whole entry): as the sequence (P34972 whole entry) above

hCB2R [2] = target: T1, hCB2R; assay: [3H]RO6957022 displacement assay; assay type: binding; details: individual replicates
CB2R-L185^ECL2H = CB2R-L185^ECL2H (Homo sapiens, UniProt P34972, L185H); assay: [35S]GTPγS assay, CB2R L185H mutant; assay type: biochemical; details: L185H mutant; at 10 µM compared to WT; read-out: Emax (%)
CB2R-L185^ECL2H, sequence (P34972 whole entry L185H): as the sequence (P34972 whole entry) above, with L185H counted along it

CB2R-E181^ECL2D = CB2R-E181^ECL2D (Homo sapiens, UniProt P34972, E181D); assay: [35S]GTPγS assay, CB2R E181D mutant; assay type: biochemical; details: E181D mutant; at 10 µM compared to WT; read-out: Emax (%)
CB2R-E181^ECL2D, sequence (P34972 whole entry E181D): as the sequence (P34972 whole entry) above, with E181D counted along it

CB2R-L182^ECL2I = CB2R-L182^ECL2I (Homo sapiens, UniProt P34972, L182I); assay: [35S]GTPγS assay, CB2R L182I mutant; assay type: biochemical; details: L182I mutant; at 10 µM compared to WT; read-out: Emax (%)
CB2R-L182^ECL2I, sequence (P34972 whole entry L182I): as the sequence (P34972 whole entry) above, with L182I counted along it

Structure (SMILES): CCCCC/C=C\C/C=C\C/C=C\C/C=C\CCCC(=O)NCCO [AEA, anandamide]
- Agonist-mediated activation (CB1R QuadrupleTM1,7): 1.6 ± 0.1 fold over its basal
- percentage specific [3H]RO6957022 binding (competition association) (hCB2R [1]; Time 1 min): 4.42% and 11.28% and 5.44%
- percentage specific [3H]RO6957022 binding (competition association) (hCB2R [1]; Time 3 min): 16.17% and 23.05% and 21.34%
- percentage specific [3H]RO6957022 binding (competition association) (hCB2R [1]; Time 5 min): 26.28% and 26.79% and 25.51%
- percentage specific [3H]RO6957022 binding (competition association) (hCB2R [1]; Time 7 min): 34.14% and 35.42% and 31.98%
- percentage specific [3H]RO6957022 binding (competition association) (hCB2R [1]; Time 10 min): 34.18% and 41.87% and 46.59%
- percentage specific [3H]RO6957022 binding (competition association) (hCB2R [1]; Time 20 min): 41.44% and 51.99% and 48.92%
- percentage specific [3H]RO6957022 binding (competition association) (hCB2R [1]; Time 30 min): 50.41% and 53.24% and 59.83%
- percentage specific [3H]RO6957022 binding (competition association) (hCB2R [1]; Time 45 min): 45.80% and 66.77% and 61.94%
- percentage specific [3H]RO6957022 binding (competition association) (hCB2R [1]; Time 60 min): 54.67% and 64.58% and 70.00%
- percentage specific [3H]RO6957022 binding (competition association) (hCB2R [1]; Time 90 min): 60.96% and 62.48% and 62.68%
- percentage specific [3H]RO6957022 binding (competition association) (hCB2R [1]; Time 120 min): 62.19% and 63.42% and 54.77%
- ET (engagement time) (hCB2R [1]; at 1 µM agonist, ET = 1/(kon ∙ 1 × 10-6)): 152 s and 152 ± 10.4 s
- Emax (CB2R-Quadruple^TM1,7; Quadruple TM1,7 mutant, at 10 µM compared to WT, read-out: Emax (%)): 24 ± 7%
- [35S]GTPγS binding, percentage of WT (CB2R-Quadruple^TM1,7; log [ligand] (M) -5): 32.30 percentage of WT and 9.42 percentage of WT and 29.02 percentage of WT
- [35S]GTPγS binding, percentage of WT (CB2R-Quadruple^TM1,7; log [ligand] (M) -6): -7.36 percentage of WT and -10.83 percentage of WT and 27.74 percentage of WT
- [35S]GTPγS binding, percentage of WT (CB2R-Quadruple^TM1,7; log [ligand] (M) -7): -34.86 percentage of WT and -19.55 percentage of WT and 15.75 percentage of WT
- [35S]GTPγS binding, percentage of WT (CB2R-Quadruple^TM1,7; log [ligand] (M) -8): 9.32 percentage of WT and -29.85 percentage of WT and 11.86 percentage of WT
- Emax (CB2R WT; maximum effect at 10 µM compared to WT (Suppl. Table 6)): 106 ± 7%
- Emax (CB2R WT; maximum effect compared to CP55,940): 60 ± 5%
- [35S]GTPγS binding, percentage of WT (CB2R WT; log [ligand] (M) -5): 119.90 percentage of WT and 99.77 percentage of WT and 99.12 percentage of WT
- [35S]GTPγS binding, percentage of WT (CB2R WT; log [ligand] (M) -6): 73.32 percentage of WT and 72.65 percentage of WT and 56.56 percentage of WT
- [35S]GTPγS binding, percentage of WT (CB2R WT; log [ligand] (M) -7): 21.64 percentage of WT and 23.33 percentage of WT and 32.57 percentage of WT
- [35S]GTPγS binding, percentage of WT (CB2R WT; log [ligand] (M) -8): 2.55 percentage of WT and 4.67 percentage of WT and 26.67 percentage of WT
- [35S]GTPγS binding, percentage of CP55,940 (CB2R WT; log [agonist] (M) -5): 55.30% and 54.57% and 71.23%
- [35S]GTPγS binding, percentage of CP55,940 (CB2R WT; log [agonist] (M) -6): 33.82% and 39.74% and 40.65%
- [35S]GTPγS binding, percentage of CP55,940 (CB2R WT; log [agonist] (M) -7): 9.98% and 12.76% and 23.41%
- [35S]GTPγS binding, percentage of CP55,940 (CB2R WT; log [agonist] (M) -8): 1.18% and 2.55% and 19.17%
- percentage specific [3H]RO6957022 binding (displacement) (hCB2R [2]; log [agonist] (M) -5): 3.79% and 18.06% and 16.04%
- percentage specific [3H]RO6957022 binding (displacement) (hCB2R [2]; log [agonist] (M) -6): 47.48% and 65.38% and 68.38%
- percentage specific [3H]RO6957022 binding (displacement) (hCB2R [2]; log [agonist] (M) -7): 87.86% and 102.56% and 105.31%
- percentage specific [3H]RO6957022 binding (displacement) (hCB2R [2]; log [agonist] (M) -8): 101.15% and 95.97% and 108.64%
- Emax (CB2R-L185^ECL2H): 210 ± 61%
- Emax (CB2R-E181^ECL2D): 14 ± 5%
- Emax (CB2R-L182^ECL2I): 5 ± 17%
